pIC50: −log10 of the molar value.
Assays:
DLD-1 = assay: AlamarBlue cell viability assay, DLD-1; format: cell-based; details: Homo sapiens, Colon
Protocol: (§1) The human immortalized mammary epithelial cell lines, MCF10A, and MCF12A; and immortalized hepatocellular epithelial cell line, LO2 were obtained from the American Type Culture Collection (ATCC, Rockville, Md.) and were cultured as per ATCC propagation instructions. MC cell lines, MCF7, T47D, BT474, BT20, MDA-MB-361, MDA-MB-436, MDA-MB-468, and MDA-MB-231; endometrial carcinoma cell lines, Ishikawa, ECC1, RL95-2 and AN3; hepatocellular carcinoma cell lines, Hep3B, H2P, and H2M; colon carcinoma cell lines, DLD-1, and Caco-2; and prostate carcinoma cell lines, PC3, LNCaP, and DU145 were obtained from the American Type Culture Collection (ATCC, Rockville, Md.). Pancreatic carcinoma cell lines, AsPC-1 and BxPC-3; Lung carcinoma cell lines, HCC-827, NCI-H1975, HCC-4006, PC-14, and NCI-H1299; and Thyroid carcinoma cell lines HTH83, CAL62, T238, and OGK-M were obtained from Prof. H. Phillip Koeffler's laboratory at The Cancer Science Institute of Singapore, National University of Singapore (NUS). Gastric carcinoma cell lines, AGS, MKN-28, MKN-45, and A2-528 were obtained from Prof. […]
(§2) In table 9 IC50 values of compound 43 compound library in several cancer cell lines are tabulated, using an AlamarBlue® cell viability assay as previously described in Pandey V et al., Breast Cancer Res. 2014; 16(5):429. Statistical analysis was assessed by using GraphPad Prism5. […]

HCC4006 = assay: AlamarBlue cell viability assay, HCC4006; format: cell-based; details: Homo sapiens, Lung
Protocol: as §1, §2

RL95-2 = assay: AlamarBlue cell viability assay, RL95-2; format: cell-based; details: Homo sapiens, Endometrial
Protocol: as §1, §2

T47D = assay: AlamarBlue cell viability assay, T47D; format: cell-based; details: Homo sapiens, Mammary
From the text: (§3) (A) Inhibitory concentration 50% (IC50) values for compound 43 in the MC cell lines are tabulated, using an AlamarBlue™ cell viability assay as previously described in Pandey V et al., Breast Cancer Res. 2014; 16(5):429. (B) Measured dose-dependent manner effect of compound 43 on the viability of MC cells (left-side, TFF3-high and right, TFF3-low) using AlamarBlue™ viability assay as previously described (ibid). (C) Apoptotic cell death of mammary carcinoma cell lines measured after treatment with 10 μM compound 43 using flow cytometry analysis at 24 hour as described previously in Keerthy H K et al., PloS one. 2014; 9(9):e107118. Annexin V-FITC staining is indicated on the X-axis and PI staining on the Y-axis. […] Acquisition of Annexin V and PI data were represented as percentage (%) in each quadrant. Note: CM, conditioned media; MCF10A and MCF12A, non-transformed immortalized-mammary epithelial cell line. Points are mean of triplicate experiments; bars, ±SD. Statistical significance was assessed by using an unpaired two-tailed Student's t test (P<0.05 was considered as significant) using GraphPad Prism5. […]
as §2

MDA-MB-361 = assay: AlamarBlue cell viability assay, MDA-MB-361; format: cell-based; details: Homo sapiens, Mammary
From the text: as §3, §2

H2P = assay: AlamarBlue cell viability assay, H2P; format: cell-based; details: Homo sapiens, Hepatocellular
Protocol: as §1, §2

AN3 = assay: AlamarBlue cell viability assay, AN3; format: cell-based; details: Homo sapiens, Endometrial
Protocol: as §1, §2

LNCaP = assay: AlamarBlue cell viability assay, LNCaP; format: cell-based; details: Homo sapiens, Prostate
Protocol: as §1, §2

CAL62 = assay: AlamarBlue cell viability assay, CAL62; format: cell-based; details: Homo sapiens, CAL-62, Thyroid
Protocol: as §1, §2

MKN-28 = assay: AlamarBlue cell viability assay, MKN-28; format: cell-based; details: Homo sapiens, Gastric
Protocol: as §1, §2

AsPC-1 = assay: AlamarBlue cell viability assay, AsPC-1; format: cell-based; details: Homo sapiens, ASPC1, Pancreatic
Protocol: as §1, §2

AGS = assay: AlamarBlue cell viability assay, AGS; format: cell-based; details: Homo sapiens, Gastric
Protocol: as §1, §2

BT20 = assay: AlamarBlue cell viability assay, BT20; format: cell-based; details: Homo sapiens, BT-20, Mammary
From the text: as §3, §2

H2M = assay: AlamarBlue cell viability assay, H2M; format: cell-based; details: Homo sapiens, Hepatocellular
Protocol: as §1, §2

T238 = assay: AlamarBlue cell viability assay, T238; format: cell-based; details: Homo sapiens, Thyroid
Protocol: as §1, §2

BT474 [1] = assay: qPCR analysis of mRNA levels of genes associated with oncogenic progression, BT474; format: cell-based, human; details: BT474, 10 μM
Protocol: Total RNA was isolated from cells using TRIzol Plus RNA Purification system as previously described in Pandey V et al., Endocrinology. 2010; 151(3):909-920. qPCR assays were performed as previously described in Pandey V et al., Endocrinology. 2010; 151(3):909-920; and Pandey V et al., Endocrinology. 2008; 149(8):3909-3919. Gene expression analysis was performed as previously described in Pandey V et al., Endocrinology. 2010; 151(3):909-920; and Pandey V et al., Endocrinology. 2008; 149(8):3909-3919.

BT474 [2] = assay: AlamarBlue cell viability assay, BT474; format: cell-based; details: Homo sapiens, BT-474, Mammary
From the text: as §3, §2

Caco-2 = assay: AlamarBlue cell viability assay, Caco-2; format: cell-based; details: Homo sapiens, Colon
Protocol: as §1, §2

## Cc1cc(-c2ccc(C3C(C#N)=C(N)Oc4c3c(=O)oc3ccccc43)cc2)cnc1F (stereo not drawn) [Compound 43, 2-Amino-4-(4-(6-fluoro-5-methylpyridin-3-yl)phenyl)-5-oxo-4H,5H-pyrano[3,2-c]chromene-3-carbonitrile]
DLD-1
  pIC50: 5.39
HCC4006
  pIC50: 5.41
RL95-2
  pIC50: 4.04
T47D
  pIC50: 5.28
MDA-MB-361
  pIC50: 5.79
H2P
  pIC50: 4.95
AN3
  pIC50: 3.54
LNCaP
  pIC50: 3.65
CAL62
  pIC50: 4.48
MKN-28
  pIC50: 4.07
AsPC-1
  pIC50: 5.36
AGS
  pIC50: 5.51
BT20
  pIC50: 3.33
H2M
  pIC50: 5.10
T238
  pIC50: 3.73
BT474 [1]
  APAF1 mRNA, Fold change relative to vehicle control: 1.27 fold
  ATM mRNA, Fold change relative to vehicle control: 0.80 fold
  BAD mRNA, Fold change relative to vehicle control: 0.04 fold
  BAK1 mRNA, Fold change relative to vehicle control: 1.92 fold
  BAX mRNA, Fold change relative to vehicle control: 21.55 fold
  BCL2L1 mRNA, Fold change relative to vehicle control: 0.05 fold
  BCL2 mRNA, Fold change relative to vehicle control: 0.02 fold
  BCLAF1 mRNA, Fold change relative to vehicle control: 1.26 fold
  BRCA1 mRNA, Fold change relative to vehicle control: 0.47 fold
  CASP7 mRNA, Fold change relative to vehicle control: 103.76 fold
  CCND1 mRNA, Fold change relative to vehicle control: 0.04 fold
  CDC25A mRNA, Fold change relative to vehicle control: 0.15 fold
  CDK2 mRNA, Fold change relative to vehicle control: 1.05 fold
  CDK4 mRNA, Fold change relative to vehicle control: 0.66 fold
  CDKN1A mRNA, Fold change relative to vehicle control: 27.15 fold
  CDKN1B mRNA, Fold change relative to vehicle control: 0.14 fold
  CDKN2A mRNA, Fold change relative to vehicle control: 1.43 fold
  CFLAR mRNA, Fold change relative to vehicle control: 9.08 fold
  CHEK2 mRNA, Fold change relative to vehicle control: 0.85 fold
  Cyclin E1 mRNA, Fold change relative to vehicle control: 0.08 fold
  E2F1 mRNA, Fold change relative to vehicle control: 0.51 fold
  GZMA mRNA, Fold change relative to vehicle control: 3.66 fold
  HTATIP2 mRNA, Fold change relative to vehicle control: 6.64 fold
  MDM2 mRNA, Fold change relative to vehicle control: 0.99 fold
  RB1 mRNA, Fold change relative to vehicle control: 0.86 fold
  S100A4 mRNA, Fold change relative to vehicle control: 4.80 fold
  TERT mRNA, Fold change relative to vehicle control: 0.08 fold
  TNFRSF1A mRNA, Fold change relative to vehicle control: 35.64 fold
  TNFRSF10B mRNA, Fold change relative to vehicle control: 9.22 fold
  TNFRSF25 mRNA, Fold change relative to vehicle control: 7.11 fold
  TP53 mRNA, Fold change relative to vehicle control: 459.09 fold
BT474 [2]
  pIC50: 5.57
Caco-2
  pIC50: 5.55

— patent US20200147039A1, “COMPOUNDS USEFUL IN INHIBITING HUMAN TREFOIL FACTOR 3” (NATIONAL UNIVERSITY OF SINGAPORE, priority 2017, published 2020)
